{
  "source": "patent US20260022142A1",
  "about": "“MACROCYCLIC IMMUNOMODULATORS” (Bristol-Myers Squibb Company, priority 2022, published 2026)",
  "note": "Bridge positions count the residues as written; N and C are the ends. Square brackets hold non-standard residues; d marks the D form. Peptide text beside a SMILES is read from it. * marks the point of attachment. ξ: configuration not given here. Bip = N[C@@H](Cc1ccc(-c2ccccc2)cc1)C(=O)O; Phe(3-Me) = Cc1cccc(C[C@H](N)C(=O)O)c1; Cha = N[C@@H](CC1CCCCC1)C(=O)O; Cit = NC(=O)NCCC[C@H](N)C(=O)O; Thr(3ξ) = CC(O)[C@H](N)C(=O)O; Carboxymethyl = O=C(O)C*; Orn = NCCC[C@H](N)C(=O)O; Aun = NCCCCCCCCCCC(=O)O; Dab = NCC[C@H](N)C(=O)O; Dap = NC[C@H](N)C(=O)O; AEEA = NCCOCCOCC(=O)O",
  "data": [
    {"target": "T1, PD-1/PD-L1 interaction (PE-labeled human PD-L1-Ig binding to Jurkat cell line over-expressing human PD-1) (Homo sapiens, UniProt Q15116)", "T1 construct": "expressed in transfected cells; host or cells: Jurkat", "T1 sequence (Q15116 25-288)": "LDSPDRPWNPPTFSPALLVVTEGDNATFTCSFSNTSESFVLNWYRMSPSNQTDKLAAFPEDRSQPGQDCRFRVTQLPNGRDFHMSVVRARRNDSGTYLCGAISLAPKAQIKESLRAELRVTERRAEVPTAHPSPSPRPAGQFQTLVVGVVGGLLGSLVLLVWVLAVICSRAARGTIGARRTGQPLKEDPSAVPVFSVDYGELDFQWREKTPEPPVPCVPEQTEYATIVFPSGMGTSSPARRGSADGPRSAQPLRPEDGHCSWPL", "assay": "Jurkat-PD-1 Cell Binding High-Content Screening Assay (CBA)", "format": "cell-based", "details": "Jurkat cell line over-expressing human PD-1; PE-labeled PD-L1-Ig 20 nM final; read-out: Jurkat hPD1-PDL1 IC50", "in_short": "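Jurkat cells over-expressing human PD-1 (8×10^3 per well, DMEM/10% FCS) preincubated with compound 2 h at 37° C, then PE-labeled human PD-L1-Ig (20 nM final) added for 1 h. Cells fixed with paraformaldehyde, Hoechst-stained, and bound fluorescence quantified by high-content imaging.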", "units": {"IC50": "nM"}, "values": [
      {"smiles": "Cc1cccc(C[C@@H]2NC(=O)[C@H](CC(=O)O)NC(=O)[C@H](Cc3ccc(OCC(=O)O)cc3)NC(=O)[C@H](CN)NC(=O)CSC[C@@H](C(=O)N[C@@H](CCN)C(=O)NCCOCCOCC(=O)NCCCCCCCCCCC(=O)O)NC(=O)[C@H](CCCN)NC(=O)[C@H](Cc3ccc(O)cc3)NC(=O)[C@H](CC3CCCCC3)NC(=O)[C@H](CCN)NC(=O)[C@@H](CC(C)C)NC(=O)[C@H](CCCN)NC(=O)[C@H](CCCNC(N)=O)NC(=O)[C@H](Cc3ccc(-c4ccccc4)cc3)NC(=O)[C@H](Cc3ccc(O)cc3)NC2=O)c1", "note": "[Compound 2572] ({CH2CO}-[Dap]Y(Carboxymethyl)D[Phe(3-Me)]Y[Bip][Cit][Orn][dL][Dab][Cha]Y[Orn]C[Dab][AEEA][Aun]-OH; thioether N-14)", "IC50": 21.6},
      {"smiles": "Cc1cccc(C[C@@H]2NC(=O)[C@H](CC(=O)O)NC(=O)[C@H](Cc3ccc(OCC(=O)O)cc3)NC(=O)[C@H](CN)NC(=O)CSC[C@@H](C(=O)N[C@@H](CCN)C(=O)NCCOCCOCC(=O)NCCCCCCCCCCC(=O)O)NC(=O)[C@H](C(C)O)NC(=O)[C@H](Cc3ccc(O)cc3)NC(=O)[C@H](CC3CCCCC3)NC(=O)[C@H](CCN)NC(=O)[C@@H](CC(C)C)NC(=O)[C@H](CCCN)NC(=O)[C@H](C(C)C)NC(=O)[C@H](Cc3ccc(-c4ccccc4)cc3)NC(=O)[C@H](Cc3ccc(O)cc3)NC2=O)c1", "note": "(stereo partly drawn) [Compound 2573] ({CH2CO}-[Dap]Y(Carboxymethyl)D[Phe(3-Me)]Y[Bip]V[Orn][dL][Dab][Cha]Y[Thr(3ξ)]C[Dab][AEEA][Aun]-OH; thioether N-14)", "IC50": 47.6},
      {"smiles": "Cc1cccc(C[C@@H]2NC(=O)[C@H](CC(=O)O)NC(=O)[C@H](Cc3ccc(OCC(=O)O)cc3)NC(=O)[C@H](CN)NC(=O)CSC[C@@H](C(=O)N[C@@H](CCN)C(=O)NCCOCCOCC(=O)NCCCCCCCCCCC(=O)O)NC(=O)[C@H](CCCN)NC(=O)[C@H](Cc3ccc(O)cc3)NC(=O)[C@H](CC3CCCCC3)NC(=O)[C@H](CCN)NC(=O)[C@@H](CC(C)C)NC(=O)[C@H](CCCN)NC(=O)[C@H](C(C)C)NC(=O)[C@H](Cc3ccc(-c4ccccc4)cc3)NC(=O)[C@H](Cc3ccc(O)cc3)NC2=O)c1", "note": "[Compound 2574] ({CH2CO}-[Dap]Y(Carboxymethyl)D[Phe(3-Me)]Y[Bip]V[Orn][dL][Dab][Cha]Y[Orn]C[Dab][AEEA][Aun]-OH; thioether N-14)", "IC50": 28.3},
      {"smiles": "Cc1cccc(C[C@@H]2NC(=O)[C@H](CC(=O)O)NC(=O)[C@H](Cc3ccc(OCC(=O)O)cc3)NC(=O)[C@H](CN)NC(=O)CSC[C@@H](C(=O)N[C@@H](CCN)C(=O)NCCOCCOCC(=O)NCCCCCCCCCCC(=O)O)NC(=O)[C@H](C(C)O)NC(=O)[C@H](C(C)C)NC(=O)[C@H](CC3CCCCC3)NC(=O)[C@H](CCN)NC(=O)[C@@H](CC(C)C)NC(=O)[C@H](CCCN)NC(=O)[C@H](Cc3ccc(O)cc3)NC(=O)[C@H](Cc3ccc(-c4ccccc4)cc3)NC(=O)[C@H](Cc3ccc(O)cc3)NC2=O)c1", "note": "(stereo partly drawn) [Compound 2575] ({CH2CO}-[Dap]Y(Carboxymethyl)D[Phe(3-Me)]Y[Bip]Y[Orn][dL][Dab][Cha]V[Thr(3ξ)]C[Dab][AEEA][Aun]-OH; thioether N-14)", "IC50": 10.2},
      {"smiles": "Cc1cccc(C[C@@H]2NC(=O)[C@H](CC(=O)O)NC(=O)[C@H](Cc3ccc(OCC(=O)O)cc3)NC(=O)[C@H](CN)NC(=O)CSC[C@@H](C(=O)N[C@@H](CCN)C(=O)NCCOCCOCC(=O)NCCCCCCCCCCC(=O)O)NC(=O)[C@H](CCCN)NC(=O)[C@H](C(C)C)NC(=O)[C@H](CC3CCCCC3)NC(=O)[C@H](CCN)NC(=O)[C@@H](CC(C)C)NC(=O)[C@H](CCCN)NC(=O)[C@H](Cc3ccc(O)cc3)NC(=O)[C@H](Cc3ccc(-c4ccccc4)cc3)NC(=O)[C@H](Cc3ccc(O)cc3)NC2=O)c1", "note": "[Compound 2576] ({CH2CO}-[Dap]Y(Carboxymethyl)D[Phe(3-Me)]Y[Bip]Y[Orn][dL][Dab][Cha]V[Orn]C[Dab][AEEA][Aun]-OH; thioether N-14)", "IC50": 10.4},
      {"smiles": "Cc1cccc(C[C@@H]2NC(=O)[C@H](CC(=O)O)NC(=O)[C@H](Cc3ccc(OCC(=O)O)cc3)NC(=O)[C@H](CN)NC(=O)CSC[C@@H](C(=O)N[C@@H](CCN)C(=O)NCCOCCOCC(=O)NCCCCCCCCCCC(=O)O)NC(=O)[C@H](C(C)O)NC(=O)[C@H](Cc3ccc(O)cc3)NC(=O)[C@H](CC3CCCCC3)NC(=O)[C@H](CCN)NC(=O)[C@@H](CC(C)C)NC(=O)[C@H](CCCN)NC(=O)[C@H](Cc3ccc(O)cc3)NC(=O)[C@H](Cc3ccc(-c4ccccc4)cc3)NC(=O)[C@H](C(C)C)NC2=O)c1", "note": "(stereo partly drawn) [Compound 2577] ({CH2CO}-[Dap]Y(Carboxymethyl)D[Phe(3-Me)]V[Bip]Y[Orn][dL][Dab][Cha]Y[Thr(3ξ)]C[Dab][AEEA][Aun]-OH; thioether N-14)", "IC50": 34},
      {"smiles": "Cc1cccc(C[C@@H]2NC(=O)[C@H](CC(=O)O)NC(=O)[C@H](Cc3ccc(OCC(=O)O)cc3)NC(=O)[C@H](CN)NC(=O)CSC[C@@H](C(=O)N[C@@H](CCN)C(=O)NCCOCCOCC(=O)NCCCCCCCCCCC(=O)O)NC(=O)[C@H](CCCN)NC(=O)[C@H](Cc3ccc(O)cc3)NC(=O)[C@H](CC3CCCCC3)NC(=O)[C@H](CCN)NC(=O)[C@@H](CC(C)C)NC(=O)[C@H](CCCN)NC(=O)[C@H](Cc3ccc(O)cc3)NC(=O)[C@H](Cc3ccc(-c4ccccc4)cc3)NC(=O)[C@H](C(C)C)NC2=O)c1", "note": "[Compound 2578] ({CH2CO}-[Dap]Y(Carboxymethyl)D[Phe(3-Me)]V[Bip]Y[Orn][dL][Dab][Cha]Y[Orn]C[Dab][AEEA][Aun]-OH; thioether N-14)", "IC50": 10.7},
      {"smiles": "Cc1cccc(C[C@@H]2NC(=O)[C@H](CC(=O)O)NC(=O)[C@H](Cc3ccc(OCC(=O)O)cc3)NC(=O)[C@H](CN)NC(=O)CSC[C@@H](C(=O)N[C@@H](CCN)C(=O)NCCOCCOCC(=O)NCCCCCCCCCCC(=O)O)NC(=O)[C@H](C(C)O)NC(=O)[C@H](C(C)C)NC(=O)[C@H](CC3CCCCC3)NC(=O)[C@H](CCN)NC(=O)[C@@H](CC(C)C)NC(=O)[C@H](CCCN)NC(=O)[C@H](CCCNC(N)=O)NC(=O)[C@H](Cc3ccc(-c4ccccc4)cc3)NC(=O)[C@H](Cc3ccc(O)cc3)NC2=O)c1", "note": "(stereo partly drawn) [Compound 2579] ({CH2CO}-[Dap]Y(Carboxymethyl)D[Phe(3-Me)]Y[Bip][Cit][Orn][dL][Dab][Cha]V[Thr(3ξ)]C[Dab][AEEA][Aun]-OH; thioether N-14)", "IC50": 11.8},
      {"smiles": "Cc1cccc(C[C@@H]2NC(=O)[C@H](CC(=O)O)NC(=O)[C@H](Cc3ccc(OCC(=O)O)cc3)NC(=O)[C@H](CN)NC(=O)CSC[C@@H](C(=O)N[C@@H](CCN)C(=O)NCCOCCOCC(=O)NCCCCCCCCCCC(=O)O)NC(=O)[C@H](CCCN)NC(=O)[C@H](C(C)C)NC(=O)[C@H](CC3CCCCC3)NC(=O)[C@H](CCN)NC(=O)[C@@H](CC(C)C)NC(=O)[C@H](CCCN)NC(=O)[C@H](CCCNC(N)=O)NC(=O)[C@H](Cc3ccc(-c4ccccc4)cc3)NC(=O)[C@H](Cc3ccc(O)cc3)NC2=O)c1", "note": "[Compound 2580] ({CH2CO}-[Dap]Y(Carboxymethyl)D[Phe(3-Me)]Y[Bip][Cit][Orn][dL][Dab][Cha]V[Orn]C[Dab][AEEA][Aun]-OH; thioether N-14)", "IC50": 7.7}
    ]}
  ]
}
